Reference: paper PMC10764907, “Aryl-quinoline-4-carbonyl hydrazone bearing different 2-methoxyphenoxyacetamides as potent α-glucosidase inhibitors; molecular dynamics, kinetic and structure–activity relationship studies” (Scientific Reports, 2024)
Like-named read-outs stand apart in the source and are kept apart here.

Key:
α-glucosidase [1] = target: T1, α-glucosidase (Saccharomyces cerevisiae, UniProt P53341); test: biochemical; type: biochemical; conditions: for IC50: α-glucosidase inhibition, mean ± SD
[2] = Concentrations of precipitation in the α-glucosidase inhibition assay; type: physicochemical
Text: Table 1 The α-glucosidase inhibition assay of 11a–o. | column: Concentrations of precipitation (µM)

α-glucosidase [3] = target: T1, α-glucosidase; test: Enzyme kinetic studies (Lineweaver–Burk plot, secondary plot); type: biochemical
Text: This pattern indicates a competitive inhibition mechanism. […] Additionally, by plotting the Km values against different inhibitor concentrations, an estimation of the inhibition constant (Ki) was obtained.

α-glucosidase [4] = target: T1, α-glucosidase; conditions: cited from earlier work; for IC50: Fig. 1
α-amylase = tested on: α-amylase; design: method as in doi:10.1016/j.molstruc.2022.133650; conditions: at 108 μM; cited from earlier work
[5] = previously reported quinoline inhibitors

T1 sequence (P53341 whole entry): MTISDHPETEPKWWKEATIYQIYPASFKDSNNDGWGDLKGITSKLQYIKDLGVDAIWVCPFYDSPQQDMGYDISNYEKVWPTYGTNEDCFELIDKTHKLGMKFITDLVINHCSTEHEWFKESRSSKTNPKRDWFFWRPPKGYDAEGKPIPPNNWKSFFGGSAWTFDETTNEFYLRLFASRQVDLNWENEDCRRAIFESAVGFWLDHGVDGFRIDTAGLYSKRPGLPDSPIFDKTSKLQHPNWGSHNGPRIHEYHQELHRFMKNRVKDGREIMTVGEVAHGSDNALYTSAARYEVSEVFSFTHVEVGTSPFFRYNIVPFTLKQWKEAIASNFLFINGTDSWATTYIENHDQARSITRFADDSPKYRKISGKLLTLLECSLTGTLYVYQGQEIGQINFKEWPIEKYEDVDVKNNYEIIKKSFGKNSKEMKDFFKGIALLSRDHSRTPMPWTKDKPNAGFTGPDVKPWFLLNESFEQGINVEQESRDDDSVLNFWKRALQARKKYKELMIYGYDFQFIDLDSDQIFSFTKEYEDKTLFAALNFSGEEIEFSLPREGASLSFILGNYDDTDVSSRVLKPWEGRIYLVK

melting point [°C]	IC50 (α-glucosidase [1]) [µM]	Concentrations of precipitation [2] [µM]	Compound	other results
> 250	34.8 ± 1.1	–	COc1cc(C=NNC(=O)c2cc(-c3ccccc3)nc3ccccc23)ccc1OCC(=O)Nc1ccccc1C [11a, 2-(2-methoxy-4-((2-(2-phenylquinoline-4-carbonyl)hydrazineylidene)methyl)phenoxy)-N-(o-tolyl)acetamide]	–
> 250	95.2 ± 1.2	≥ 375	COc1cc(C=NNC(=O)c2cc(-c3ccccc3)nc3ccccc23)ccc1OCC(=O)Nc1ccc(C)cc1 [11b, 2-(2-methoxy-4-((2-(2-phenylquinoline-4-carbonyl)hydrazono)methyl)phenoxy)-N-(p-tolyl)acetamide]	–
> 250	43.7 ± 1	–	COc1ccc(NC(=O)COc2ccc(C=NNC(=O)c3cc(-c4ccccc4)nc4ccccc34)cc2OC)cc1 [11c, 2-(2-methoxy-4-((2-(2-phenylquinoline-4-carbonyl)hydrazineylidene)methyl)phenoxy)-N-(4-methoxyphenyl)acetamide]	–
> 250	156.8 ± 1.5	≥ 375	CCc1ccc(NC(=O)COc2ccc(C=NNC(=O)c3cc(-c4ccccc4)nc4ccccc34)cc2OC)cc1 [11d, N-(4-ethylphenyl)-2-(2-methoxy-4-((2-(2-phenylquinoline-4-carbonyl)hydrazono)methyl)phenoxy)acetamide]	–
> 250	52.6 ± 0.6	–	COc1cc(C=NNC(=O)c2cc(-c3ccccc3)nc3ccccc23)ccc1OCC(=O)Nc1ccc(F)cc1 [11e, N-(4-fluorophenyl)-2-(2-methoxy-4-((2-(2-phenylquinoline-4-carbonyl)hydrazono)methyl)phenoxy)acetamide]	–
> 250	> 750	≥ 375	COc1cc(C=NNC(=O)c2cc(-c3ccccc3)nc3ccccc23)ccc1OCC(=O)Nc1ccc(Cl)cc1 [11f, N-(4-chlorophenyl)-2-(2-methoxy-4-((2-(2-phenylquinoline-4-carbonyl)hydrazono)methyl)phenoxy)acetamide]	–
> 250	180.9 ± 1.7	≥ 375	COc1cc(C=NNC(=O)c2cc(-c3ccccc3)nc3ccccc23)ccc1OCC(=O)Nc1ccc(Br)cc1 [11g, N-(4-bromophenyl)-2-(2-methoxy-4-((2-(2-phenylquinoline-4-carbonyl)hydrazineylidene)methyl)phenoxy)acetamide]	–
> 250	71.2 ± 0.6	–	COc1ccc(-c2cc(C(=O)NN=Cc3ccc(OCC(=O)Nc4ccccc4C)c(OC)c3)c3ccccc3n2)cc1 [11i, 2-(2-methoxy-4-((2-(2-(4-methoxyphenyl)quinoline-4-carbonyl)hydrazono)methyl)phenoxy)-N-(o-tolyl)acetamide]	–
> 250	61.8 ± 0.5	≥ 190	COc1ccc(NC(=O)COc2ccc(C=NNC(=O)c3cc(-c4ccc(OC)cc4)nc4ccccc34)cc2OC)cc1 [11j, 2-(2-methoxy-4-((2-(2-(4-methoxyphenyl)quinoline-4-carbonyl)hydrazono)methyl)phenoxy)-N-(4-methoxyphenyl)acetamide]	–
> 250	> 750	≥ 190	COc1ccc(-c2cc(C(=O)NN=Cc3ccc(OCC(=O)Nc4ccc(F)cc4)c(OC)c3)c3ccccc3n2)cc1 [11l, N-(4-fluorophenyl)-2-(2-methoxy-4-((2-(2-(4-methoxyphenyl)quinoline-4-carbonyl)hydrazono)methyl)phenoxy)acetamide]	–
> 250	152 ± 1.7	≥ 190	COc1ccc(-c2cc(C(=O)NN=Cc3ccc(OCC(=O)Nc4ccc(Br)cc4)c(OC)c3)c3ccccc3n2)cc1 [11m, N-(4-bromophenyl)-2-(2-methoxy-4-((2-(2-(4-methoxyphenyl)quinoline-4-carbonyl)hydrazono)methyl)phenoxy)acetamide]	–
> 250	48.7 ± 0.9	≥ 190	COc1ccc(-c2cc(C(=O)NN=Cc3ccc(OCC(=O)Nc4ccc(Cl)cc4)c(OC)c3)c3ccccc3n2)cc1 [11n, N-(4-chlorophenyl)-2-(2-methoxy-4-((2-(2-(4-methoxyphenyl)quinoline-4-carbonyl)hydrazono)methyl)phenoxy)acetamide]	–
> 250	459.8 ± 1.5	–	COc1ccc(-c2cc(C(=O)NN=Cc3ccc(OCC(=O)Nc4ccc([N+](=O)[O-])cc4)c(OC)c3)c3ccccc3n2)cc1 [11o, 2-(2-methoxy-4-((2-(2-(4-methoxyphenyl)quinoline-4-carbonyl)hydrazono)methyl)phenoxy)-N-(4-nitrophenyl)acetamide]	–

Second part, the compound before the results:

Compound	melting point [°C]	IC50 (α-glucosidase [1]) [µM]	Concentrations of precipitation [2] [µM]	other results
COc1ccc(-c2cc(C(=O)NN=Cc3ccc(OCC(=O)Nc4ccccc4)c(OC)c3)c3ccccc3n2)cc1 [11h, 2-(2-methoxy-4-((2-(2-(4-methoxyphenyl)quinoline-4-carbonyl)hydrazono)methyl)phenoxy)-N-phenylacetamide]	> 250	62.4 ± 0.9	≥ 375	fold more potent vs positive control (α-glucosidase [1]; vs acarbose): more than 11 fold
CCc1ccc(NC(=O)COc2ccc(C=NNC(=O)c3cc(-c4ccc(OC)cc4)nc4ccccc34)cc2OC)cc1 [11k, N-(4-ethylphenyl)-2-(2-methoxy-4-((2-(2-(4-methoxyphenyl)quinoline-4-carbonyl)hydrazono)methyl)phenoxy)acetamide]	> 250	26 ± 0.8	–	Ki (α-glucosidase [3]): 25.6 µM; mode of inhibition (α-glucosidase [3]; Lineweaver–Burk plot): competitive
O=C(O)c1ccc2ccccc2n1 [A]	–	–	–	IC50 (α-glucosidase [4]; [5]): 9.1 µM
O=C(O)c1cnc2ccccc2c1 [B]	–	–	–	IC50 (α-glucosidase [4]; [5]): 10.6 µM
O=C(CSc1nc2ccccc2cc1-c1nc2ccccc2[nH]1)Nc1ccc2ccccc2c1 [C]	–	–	–	IC50 (α-glucosidase [4]): 3.2 µM
O=C(NCCCC1OC(CO)C(O)C(O)C1O)c1cc(-c2ccccc2)nc2ccccc12 (centres unmarked) [D]	–	–	–	IC50 (α-glucosidase [4]): 7.98 µM
O=C(N/N=C/c1cccc(F)c1)c1ccc2nc(-c3ccccc3)c(-c3ccccc3)nc2c1 [E]	–	–	–	IC50 (α-glucosidase [4]): 111 µM
COc1ccc(-c2nc3cc(C(=O)N/N=C/c4ccc(O)c(OC)c4)ccc3[nH]2)cc1 [F]	–	–	–	IC50 (α-glucosidase [4]): 60.1 µM
COc1cc(/C=N/NC(=O)CC#N)ccc1OCc1cn(Cc2ccc(Cl)cc2)nn1 [G]	–	–	–	IC50 (α-glucosidase [4]): 1 µM
CCc1ccc(NC(=O)Cn2cc(COc3ccc(-c4nc5ccccc5[nH]4)cc3)nn2)cc1 [H]	–	–	–	Ki (α-glucosidase [4]): 23 µM; mode of inhibition (α-glucosidase [4]): competitive
COc1cc(-c2nc3ccccc3[nH]2)ccc1OCC(=O)Nc1ccc(F)cc1 [I]	–	–	–	α-amylase inhibition (α-amylase): 45.0 ± 0.8%; IC50 (α-glucosidase [4]): 99.6 µM; Ki (α-glucosidase [4]): 67 µM; mode of inhibition (α-glucosidase [4]): competitive
COc1cc(-c2nc3ccccc3c(=O)[nH]2)ccc1OCC(=O)Nc1ccccc1F [J]	–	–	–	IC50 (α-glucosidase [4]): 14.4 µM
